Test results from ChEMBL document CHEMBL5346931, “Design, synthesis, and repurposing of O6-aminoalkyl-sulfuretin analogs towards discovery of potential lead compounds as antileishmanial agents” (Eur J Med Chem, 2023).

What was measured:
[1] = test system: Leishmania donovani; experiment: Antileishmanial activity against Leishmania donovani promastigotes assessed as parasitic growth inhibition at 50 uM incubated for 3 days by resazurin dye based assay relative to control; type: functional; details: 72 h, time 3 day
[2] = test system: Leishmania donovani; experiment: Antileishmanial activity against Leishmania donovani promastigotes assessed as parasitic growth inhibition incubated for 3 days by resazurin dye based assay; type: functional, organism-based; details: 72 h
[3] = test system: Leishmania donovani; experiment: Antileishmanial activity against Leishmania donovani promastigotes assessed as parasitic growth inhibition at 25 uM incubated for 3 days by resazurin dye based assay relative to control; type: functional; details: 72 h, time 3 day
[4] = test system: Leishmania donovani; experiment: Antileishmanial activity against Leishmania donovani amastigotes infected in human THP-1 cells assessed as inhibition of intracellular parasite number incubated for 72 hrs by DAPI staining based assay; type: functional, organism-based; details: THP-1, 72 h
[5] = test system: Leishmania donovani; experiment: Antileishmanial activity against Leishmania donovani amastigotes infected in human THP-1 cells assessed as inhibition of parasite infection incubated for 72 hrs by DAPI staining based assay; type: functional, organism-based; details: THP-1, 72 h
[6] = Cytotoxicity against human THP-1 cells; type: toxicity, cell-based

IC50 [4]	IC50 [5]	Compound	inhibition at 50 µM [1]	IC50 [2]	inhibition at 25 µM [3]	CC50 [6]
–	–	COc1ccc2c(c1)O/C(=C\c1ccc(O)c(O)c1)C2=O	108%	26.4 µM	105%	–
31.5 µM	34.8 µM	COc1ccc(/C=C2\Oc3cc(OCCN4CCCCC4)ccc3C2=O)cc1	99%	4.3 µM	104%	40.7 µM
25.5 µM	29.7 µM	COc1ccc(/C=C2\Oc3cc(OCCN4CCCCC4)ccc3C2=O)cc1OC	127%	2.5 µM	122%	27.4 µM
–	–	COc1ccccc1/C=C1\Oc2cc(OCCN3CCCC3)ccc2C1=O	71%	> 100 µM	69%	–
22.9 µM	26.7 µM	COc1cccc(/C=C2\Oc3cc(OCCN4CCCC4)ccc3C2=O)c1	117%	4.8 µM	112%	28.9 µM
15.8 µM	22.6 µM	COc1ccc(/C=C2\Oc3cc(OCCN4CCCC4)ccc3C2=O)cc1	115%	4.8 µM	108%	21.5 µM
4.6 µM	11.1 µM	COc1ccc(OC)c(/C=C2\Oc3cc(OCCN4CCCC4)ccc3C2=O)c1	116%	4.1 µM	115%	10.5 µM
15.7 µM	27.3 µM	COc1cc(/C=C2\Oc3cc(OCCN4CCCC4)ccc3C2=O)cc(OC)c1OC	133%	3.1 µM	126%	26.2 µM
8.2 µM	21.2 µM	COc1ccccc1/C=C1\Oc2cc(OCCCN3CCCC3)ccc2C1=O	110%	4.1 µM	107%	14.3 µM
> 100 µM	26.4 µM	COc1cccc(/C=C2\Oc3cc(OCCCN4CCCC4)ccc3C2=O)c1OC	116%	5.4 µM	109%	33.5 µM
4.4 µM	6.3 µM	COc1ccc(OC)c(/C=C2\Oc3cc(OCCCN4CCCC4)ccc3C2=O)c1	103%	3.7 µM	103%	6.6 µM
16.9 µM	26.2 µM	COc1ccc(/C=C2\Oc3cc(OCCCN4CCCC4)ccc3C2=O)cc1OC	124%	3.1 µM	120%	26.9 µM
14.3 µM	14 µM	COc1cc(/C=C2\Oc3cc(OCCCN4CCCC4)ccc3C2=O)cc(OC)c1	102%	2.8 µM	104%	15.3 µM
17.1 µM	24.1 µM	COc1ccc(/C=C2\Oc3cc(OCCCCCN4CCCCC4)ccc3C2=O)cc1OC	124%	2.9 µM	115%	26.1 µM
22.3 µM	29.5 µM	COc1ccc(/C=C2\Oc3cc(OCCCN4CCCCC4)ccc3C2=O)cc1OC	125%	2.6 µM	119%	28.4 µM
14.5 µM	17.1 µM	CCN(CC)CCCOc1ccc2c(c1)O/C(=C\c1cccc(OC)c1)C2=O	118%	4.6 µM	114%	19.3 µM
> 100 µM	27.4 µM	CCN(CC)CCOc1ccc2c(c1)O/C(=C\c1cccc(OC)c1)C2=O	121%	8.6 µM	115%	39 µM
9.9 µM	13.3 µM	CCN(CC)CCOc1ccc2c(c1)O/C(=C\c1ccccc1OC)C2=O	115%	5.3 µM	110%	17.2 µM
–	–	COc1cccc(/C=C2\Oc3cc(OCCN4CCOCC4)ccc3C2=O)c1	105%	27 µM	80%	–
2 µM	7.7 µM	CCCCCCCCCCCCCCCCCCOCC(COP(=O)([O-])OCC[N+](C)(C)C)OC (stereo unspecified) [EDELFOSINE]	108%	3.9 µM	108%	12.9 µM
